# Measured values: patent publication US9498478B2, “Spiro aminic compounds with NK1 antagonist activity” (Rottapharm Biotech Srl, priority 2011, dated 2016)
# Biological target: T1, human NK1 receptor (Homo sapiens, UniProt P25103)
# T1 construct: human NK1 receptor endogenously expressed in U373 cells; endogenous in cells; host or cells: U373 (human U373MG astrocytoma) cells
# Assay: Antagonist activity at the human NK1 receptor endogenously expressed in U373 cells, agonist-induced cytosolic Ca2+ mobilization (fluorimetric)
# Format: cell-based
# Details: U373 MG, percent inhibition of control response to 3 nM [Sar9,Met(O2)11]-SP at compound concentration 10 μM, read-out: NK1 % inh @10 μM
# Description: Evaluation of the antagonist activity of compounds at the human NK1 receptor endogenously expressed in U373 cells was determined by measuring their effect on agonist-induced cytosolic Ca2+ ion mobilization using a fluorimetric detection method.
# The cells were suspended in DMEM buffer (Invitrogen), then distributed in microplates at a density of 1.10^4 cells/well. The fluorescent probe (Fluo4 NW, Invitrogen) mixed with probenicid in HBSS buffer (Invitrogen) complemented with 20 mM Hepes (Invitrogen) (pH 7.4) was then added into each well and equilibrated with the cells for 60 min at 37° C. then 15 min at 22° C. Thereafter, the assay plates were positioned in a microplate reader (CellLux, PerkinElmer) which was used for the addition of the test compound, reference antagonist or HBSS buffer then 5 min later 3 nM [Sar9,Met(O2)11]-SP or HBSS buffer (basal control), and the measurements of changes in fluorescence intensity which varies proportionally to the free cytosolic Ca2+ ion concentration.
# The compounds, dissolved in DMSO and diluted in the medium, have been analysed in the 1 nM-1 μM concentration range (every concentration in duplicate). The antagonistic activity vs receptor NK1 of invention compounds has been expressed as pKb (co-logarithm of the apparent dissociation constant calculated by using the modified Cheng Prusoff equation) or alternatively as a percent of inhibition of the control response to 3 nM [Sar^9,Met(O2)^11]-SP at a compound concentration of 10 μM.
# The standard reference antagonist was L 733,060, which was tested in each experiment at several concentrations to generate a concentration-response curve from which its IC50 value is calculated. • Bibliographic reference: EISTETTER, H. R., MILLS, A., BREWSTER, R., ALOUANI, S., RAMBOSSON, C. and KAWASHIMA, E. (1992), Functional characterization of neurokinin-1 receptor on human U373MG astrocytoma cells, Glia, 6: 89.
# T1 sequence (P25103 whole entry): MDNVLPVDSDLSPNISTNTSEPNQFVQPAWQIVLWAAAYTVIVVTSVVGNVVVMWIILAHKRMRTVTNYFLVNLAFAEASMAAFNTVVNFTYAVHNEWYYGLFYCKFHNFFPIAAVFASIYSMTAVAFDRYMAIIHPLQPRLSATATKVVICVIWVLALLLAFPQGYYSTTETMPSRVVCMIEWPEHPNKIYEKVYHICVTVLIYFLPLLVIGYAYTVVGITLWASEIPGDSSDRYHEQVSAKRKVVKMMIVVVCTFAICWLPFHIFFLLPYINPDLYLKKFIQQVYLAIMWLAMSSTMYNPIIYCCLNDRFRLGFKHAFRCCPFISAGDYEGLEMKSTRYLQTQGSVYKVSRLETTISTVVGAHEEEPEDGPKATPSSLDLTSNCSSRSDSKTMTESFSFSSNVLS
row,inhibition at 10 µM [%],SMILES
1,87,"Cc1ccc(-c2ccccn2)c(C(=O)N2CCC3(CC3)C[C@H]2CNc2ccc(Cl)cn2)c1 [Compound 2, (S)-(5-(((5-chloropyridin-2-yl)amino)methyl)-6-azaspiro[2.5]octan-6-yl)(5-methyl-2-(pyridin-2-yl)phenyl)methanone]"
2,65,"O=C(c1cc(F)ccc1-c1ccccn1)N1CCC2(CC2)C[C@H]1CNc1ccc(Cl)cn1 [Compound 3, (S)-(5-(((5-chloropyridin-2-yl)amino)methyl)-6-azaspiro[2.5]octan-6-yl)(5-fluoro-2-(pyridin-2-yl)phenyl)methanone]"
3,61,"O=C(c1cc(F)ccc1-n1nccn1)N1CCC2(CC2)C[C@H]1CNc1ccc(Cl)cn1 [Compound 4, (S)-(5-(((5-chloropyridin-2-yl)amino)methyl)-6-azaspiro[2.5]octan-6-yl)(5-fluoro-2-(2H-1,2,3-triazol-2-yl)phenyl)methanone]"
4,67,"Cc1ccc(-n2nccn2)c(C(=O)N2CCC3(CC3)C[C@H]2CNc2ccc(C(F)(F)F)cn2)c1 [Compound 5, (S)-(5-methyl-2-(2H-1,2,3-triazol-2-yl)phenyl)(5-(((5-(trifluoromethyl)pyridin-2-yl)amino)methyl)-6-azaspiro[2.5]octan-6-yl)methanone]"
5,61,"Cc1ccc(-n2nccn2)c(C(=O)N2CCC3(CC3)C[C@H]2CNc2ccc(Cl)cn2)c1 [Compound 6, (S)(5-((5-chloropyridin-2-ylamino)methyl)-6-azaspiro[2.5]octan-6-yl)(5-methyl-2-(2H-1,2,3-triazol-2-yl)phenyl)methanone]"
6,87,"Cc1ccc(-c2ncccn2)c(C(=O)N2CCC3(CC3)C[C@H]2CNc2ccc(C(F)(F)F)cn2)c1 [Compound 7, (S)-(5-methyl-2-(pyrimidin-2-yl)phenyl)(5-(((5-(trifluoromethyl)pyridin-2-yl)amino)methyl)-6-azaspiro[2.5]octan-6-yl)methanone]"

# Same assay, conditions: co-logarithm of apparent dissociation constant by modified Cheng Prusoff equation, agonist 3 nM [Sar9,Met(O2)11]-SP, read-out: pKb NK1 (converted)
row,Kb [nM],SMILES
1,2.51,"O=C(c1cc(Cl)ccc1-c1ncccn1)N1CCC2(CC2)C[C@H]1CNc1ccc(Cl)cn1 [Compound 1, (S)-(5-chloro-2-(pyrimidin-2-yl)phenyl)(5-(((5-chloropyridin-2-yl)amino)methyl)-6-azaspiro[2.5]octan-6-yl)methanone]"
2,5.01,"Cc1ccc(-c2ncccn2)c(C(=O)N2CCC3(CC3)C[C@H]2CNc2ccc(Cl)cn2)c1 [Compound 8, (S)-(5-(((5-chloropyridin-2-yl)amino)methyl)-6-azaspiro[2.5]octan-6-yl)(5-methyl-2-(pyrimidin-2-yl)phenyl)methanone]"
3,2.51,"O=C(c1cc(F)ccc1-c1ncccn1)N1CCC2(CC2)C[C@H]1CNc1ccc(Cl)cn1 [Compound 9, (S)-(5-(((5-chloropyridin-2-yl)amino)methyl)-6-azaspiro[2.5]octan-6-yl)(5-fluoro-2-(pyrimidin-2-yl)phenyl)methanone]"
